From patent publication US20230398102A1 (Bausch Health Ireland Limited, priority 2020, published 2023)

Columns and labels:
Format in all cases: physicochemical
[1] = Compatibility of individual excipients with hard gelatin capsule shells; conditions: Hard Gel Capsules
Protocol: (§1) The physical compatibility of individual excipients with gelatin shell matrix was investigated. For hard gelatin capsules, solvent was filled into hard capsules and placed in scintillation vials. For soft gelatin capsules, each capsule was dipped into the excipient and then placed in scintillation vials. The vials were then subjected to various temperature conditions for up to 4 weeks. Capsules were then evaluated for physical changes (softening or hardening of capsule shell).
(§2) Hard gel capsules were purchased from VWR (catalogue number 70102) with a volume of 0.68 mL, diameter of 6.63 mm, a length of 19.0 mm and size 1. Soft gel capsules were Advil liquid-gels, 200 mg strength, 80 counts.

[2] = Excipient compatibility: rifaximin solutions stored at various temperatures, chemical purity by HPLC; conditions: rifaximin in named solvent
[3] = Compatibility of individual excipients with soft gelatin capsule shells; conditions: Soft Gel Capsules
Protocol: as §1, §2

SMILES	Physical change (Yes or No) ([1]; T 2 weeks, 25° C.)	Physical change (Yes or No) ([1]; T 2 weeks, 40° C.)	Physical change (Yes or No) ([1]; T 4 weeks, 25° C.)	Physical change (Yes or No) ([1]; T 4 weeks, 40° C.)	Rifaximin % Label Claim (LC) ([2]; T0)	Rifaximin % Label Claim (LC) ([2]; T 2 weeks, 25° C.)	Rifaximin % Label Claim (LC) ([2]; T 2 weeks, 40° C.)	Rifaximin % Label Claim (LC) ([2]; T 2 weeks, 50° C.)	Rifaximin % Label Claim (LC) ([2]; T 4 weeks, 25° C.)	Rifaximin % Label Claim (LC) ([2]; T 4 weeks, 40° C.)	Rifaximin % Label Claim (LC) ([2]; T 4 weeks, 50° C.)	Physical change (Yes or No) ([1]; T 2 weeks, 50° C.)	Physical change (Yes or No) ([1]; T 4 weeks, 50° C.)	Physical change (Yes or No) ([3]; T 2 weeks, 25° C.)	Physical change (Yes or No) ([3]; T 2 weeks, 40° C.)	Physical change (Yes or No) ([3]; T 2 weeks, 50° C.)	Physical change (Yes or No) ([3]; T 4 weeks, 25° C.)	Physical change (Yes or No) ([3]; T 4 weeks, 40° C.)	Physical change (Yes or No) ([3]; T 4 weeks, 50° C.)
OCc1ccccc1 [Benzyl alcohol]	Yes	Yes	Yes	Yes	99.3 % Label Claim (LC)	99.8 % Label Claim (LC)	96.3 % Label Claim (LC)	96.9 % Label Claim (LC)	98.2 % Label Claim (LC)	94.0 % Label Claim (LC)	93.0 % Label Claim (LC)	–	–	–	–	–	–	–	–
CCOC(=O)CCCCCCCCC(=O)OCC [Diethyl sebacate]	No	No	No	No	102.7 % Label Claim (LC)	102.1 % Label Claim (LC)	101.7 % Label Claim (LC)	101.7 % Label Claim (LC)	101.1 % Label Claim (LC)	98.8 % Label Claim (LC)	99.8 % Label Claim (LC)	–	–	–	–	–	–	–	–
CCOCCOCCO [Diethylene glycol monoethyl ether]	No	No	No	No	–	–	–	–	–	–	–	No	No	–	–	–	–	–	–
CC(C)OC(=O)CCCCC(=O)OC(C)C [Diisopropyl adipate]	–	–	–	–	97.6 % Label Claim (LC)	95.3 % Label Claim (LC)	71.3 % Label Claim (LC)	50.3 % Label Claim (LC)	95.1 % Label Claim (LC)	64.8 % Label Claim (LC)	30.4 % Label Claim (LC)	–	–	–	–	–	–	–	–
CCCCCCCC/C=C\CCCCCCCC(=O)OCC(O)CO (stereo not shown) [Glyceryl monooleate (Type 40), Glyceryl monooleate]	No	No	No	No	92.7 % Label Claim (LC)	96.4 % Label Claim (LC)	58.3 % Label Claim (LC)	48.9 % Label Claim (LC)	95.0 % Label Claim (LC)	59.0 % Label Claim (LC)	41.7 % Label Claim (LC)	No	No	No	Yes	Yes	No	Yes	Yes
CC(O)CO (stereo not shown) [Propylene glycol]	–	–	–	–	97.9 % Label Claim (LC)	96.9 % Label Claim (LC)	97.0 % Label Claim (LC)	95.7 % Label Claim (LC)	96.2 % Label Claim (LC)	95.6 % Label Claim (LC)	98.6 % Label Claim (LC)	–	–	–	–	–	–	–	–

Second part, led by results:

Physical change (Yes or No) ([1]; T 2 weeks, 25° C.)	Physical change (Yes or No) ([1]; T 2 weeks, 40° C.)	Physical change (Yes or No) ([1]; T 4 weeks, 25° C.)	Physical change (Yes or No) ([1]; T 4 weeks, 40° C.)	Rifaximin % Label Claim (LC) ([2]; T0)	Rifaximin % Label Claim (LC) ([2]; T 2 weeks, 25° C.)	Rifaximin % Label Claim (LC) ([2]; T 2 weeks, 40° C.)	Rifaximin % Label Claim (LC) ([2]; T 2 weeks, 50° C.)	Rifaximin % Label Claim (LC) ([2]; T 4 weeks, 25° C.)	Rifaximin % Label Claim (LC) ([2]; T 4 weeks, 40° C.)	Rifaximin % Label Claim (LC) ([2]; T 4 weeks, 50° C.)	Physical change (Yes or No) ([1]; T 2 weeks, 50° C.)	Physical change (Yes or No) ([1]; T 4 weeks, 50° C.)	SMILES	Physical change (Yes or No) ([3]; T 2 weeks, 25° C.)	Physical change (Yes or No) ([3]; T 2 weeks, 40° C.)	Physical change (Yes or No) ([3]; T 2 weeks, 50° C.)	Physical change (Yes or No) ([3]; T 4 weeks, 25° C.)	Physical change (Yes or No) ([3]; T 4 weeks, 40° C.)	Physical change (Yes or No) ([3]; T 4 weeks, 50° C.)
No	No	No	No	102.7 % Label Claim (LC)	98.7 % Label Claim (LC)	100.0 % Label Claim (LC)	97.4 % Label Claim (LC)	100.6 % Label Claim (LC)	100.0 % Label Claim (LC)	92.9 % Label Claim (LC)	No	No	CCCCC/C=C\C/C=C\CCCCCCCC(=O)OCC(O)CO (stereo not shown) [Glyceryl monolinoleate]	No	No	No	No	No	No
No	No	No	No	98.7 % Label Claim (LC)	96.3 % Label Claim (LC)	97.1 % Label Claim (LC)	95.2 % Label Claim (LC)	96.9 % Label Claim (LC)	95.0 % Label Claim (LC)	91.8 % Label Claim (LC)	–	–	CCCCCCCC/C=C\CCCCCCCCO [Oleyl alcohol]	–	–	–	–	–	–
Yes	Yes	Yes	Yes	97.5 % Label Claim (LC)	98.3 % Label Claim (LC)	96.7 % Label Claim (LC)	95.6 % Label Claim (LC)	97.0 % Label Claim (LC)	95.0 % Label Claim (LC)	92.5 % Label Claim (LC)	–	–	OCCOCCOCCO [Triethylene glycol]	–	–	–	–	–	–
–	–	–	–	97.3 % Label Claim (LC)	96.1 % Label Claim (LC)	89.3 % Label Claim (LC)	81.5 % Label Claim (LC)	95.4 % Label Claim (LC)	82.7 % Label Claim (LC)	74.2 % Label Claim (LC)	–	–	CCOCCOCCO [diethylene glycol monoethyl ether]	–	–	–	–	–	–
